EC50 data for 27 compounds are collected here from patent US9156796B2, “Benzoimidazole-carboxylic acid amide derivatives as APJ receptor modulators” (SANOFI, priority 2013, dated 2015).

For this experiment, the target named is T1, human apelin receptor (Homo sapiens, UniProt P35414).
T1 construct: expressed in transfected cells
T1 sequence (P35414 1-380): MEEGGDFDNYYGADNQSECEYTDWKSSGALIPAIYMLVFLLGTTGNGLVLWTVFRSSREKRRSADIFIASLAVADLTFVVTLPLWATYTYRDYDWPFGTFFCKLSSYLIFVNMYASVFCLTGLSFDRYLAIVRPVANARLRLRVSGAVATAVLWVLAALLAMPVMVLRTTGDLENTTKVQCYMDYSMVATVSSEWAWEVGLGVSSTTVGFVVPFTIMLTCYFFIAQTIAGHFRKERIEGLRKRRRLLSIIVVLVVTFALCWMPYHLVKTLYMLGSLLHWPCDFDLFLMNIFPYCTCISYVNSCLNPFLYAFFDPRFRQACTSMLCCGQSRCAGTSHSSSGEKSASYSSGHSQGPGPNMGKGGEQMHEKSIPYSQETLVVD
The experiment is described as follows: Determination of agonism on the human apelin receptor by a calcium fluorescence assay (FLIPR). The class given is cell-based. The settings on record: HEK293 cells stably transfected with human apelin receptor and Giaq protein, Fluo-4 calcium fluorescence, read-out: EC50 (APJ agonism). In outline:
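HEK293 cells stably co-expressing human apelin receptor and promiscuous Giaq, loaded 1 h at 37 °C with Fluo-4 (4 μM) in probenecid-containing Hepes buffer, pH 7.4. Compounds, at least 7 concentrations in triplicate, added in FLIPR Tetra; peak calcium fluorescence normalized to 1 μM apelin-13 as 100% to derive EC50.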
Take `CCC(CC)n1c(Cc2cccs2)nc2cc(C(=O)N[C@@H](CC(C)C)C(=O)NCCS(N)(=O)=O)ccc21` [Example 401, 1-(1-Ethyl-propyl)-2-thiophen-2-ylmethyl-1H-benzoimidazole-5-carboxylic acid [(S)-3-methyl-1-(2-sulfamoyl-ethylcarbamoyl)-butyl]-amide]: the EC50 was 600 nM.

Regarding `CC(C)C[C@H](NC(=O)c1ccc2c(c1)nc(Cc1cccs1)n2C1CCCC1C)C(=O)O` (single isomer, unassigned) [Example 429], the EC50 is 891 nM.

As to `CCC(CC)n1c(Cc2cccs2)nc2cc(C(=O)N[C@@H](CC(C)C)C(=O)NCc3ccccc3OC)ccc21` [Example 238, 1-(1-Ethyl-propyl)-2-thiophen-2-ylmethyl-1H-benzoimidazole-5-carboxylic acid [(S)-1-(2-methoxy-benzylcarbamoyl)-3-methyl-butyl]-amide], the EC50 stood at 6550 nM.

In the case of `CCC(CC)n1c(Cc2cccs2)nc2cc(C(=O)N[C@@H](CC(C)C)C(=O)N3CCN(CC(C)C)CC3)ccc21` [Example 272, 1-(1-Ethyl-propyl)-2-thiophen-2-ylmethyl-1H-benzoimidazole-5-carboxylic acid [(S)-1-(4-isobutyl-piperazine-1-carbonyl)-3-methyl-butyl]-amide], the EC50 came to 2770 nM.

With `CCCC(NC(=O)c1ccc2c(c1)nc(Cc1cccs1)n2C(CC)CC)C(C)(C)C(=O)O` (single isomer, unassigned) [Example 466], the EC50 was determined as 4720 nM.

For the compound `CCC(CC)n1c(Cc2cccs2)nc2cc(C(=O)N[C@@H](CC(C)C)C(=O)NCCCN3CCS(=O)(=O)CC3)ccc21` [Example 342, 1-(1-Ethyl-propyl)-2-thiophen-2-ylmethyl-1H-benzoimidazole-5-carboxylic acid {(S)-1-[3-(1,1-dioxo-1lambda6-thiomorpholin-4-yl)-propylcarbamoyl]-3-methyl-butyl}-amide], the EC50 was found to be 999 nM.

`CCC(CC)n1c(Cc2cccs2)nc2cc(C(=O)N[C@@H](CC(C)C)C(=O)N3CCSCC3)ccc21` [Example 217, 1-(1-Ethyl-propyl)-2-thiophen-2-ylmethyl-1H-benzoimidazole-5-carboxylic acid [(S)-3-methyl-1-(thiomorpholine-4-carbonyl)-butyl]-amide]: the EC50 worked out at 2210 nM.

`CCC(CC)n1c(Cc2cccs2)nc2cc(C(=O)N[C@@H](CC(C)C)C(=O)N(C)C)ccc21` [Example 357, 1-(1-Ethyl-propyl)-2-thiophen-2-ylmethyl-1H-benzoimidazole-5-carboxylic acid ((S)-1-dimethyl-carbamoyl-3-methyl-butyl)-amide]: the concentration for a half-maximal effect (EC50) amounted to 389 nM.

For `CCC(CC)n1c(Cc2cccs2)nc2cc(C(=O)NC(CO)c3ccccc3)ccc21` (stereo not drawn) [Example 202, 1-(1-Ethyl-propyl)-2-thiophen-2-ylmethyl-1H-benzoimidazole-5-carboxylic acid (2-hydroxy-1-phenyl-ethyl)-amide], the EC50 stood at 14400 nM.

With `CCC(CC)n1c(Cc2cccs2)nc2cc(C(=O)N[C@H](Cc3n[nH]c(C(F)(F)F)n3)CC(C)C)ccc21` [Example 476, 1-(1-Ethyl-propyl)-2-thiophen-2-ylmethyl-1H-benzoimidazole-5-carboxylic acid [(S)-3-methyl-1-(5-trifluoromethyl-1H-[1,2,4]triazol-3-ylmethyl)-butyl]-amide], the EC50 worked out at 3950 nM.

In the case of `C[C@@H]1CCCC[C@H]1n1c(Cc2cccs2)nc2cc(C(=O)NC(CC(=O)O)CC3CCCCC3)ccc21` (stereo partly drawn) [Example 51, 4-Cyclohexyl-3-{[1-((1R,2R)-2-methyl-cyclohexyl)-2-thiophen-2-ylmethyl-1H-benzoimidazole-5-carbonyl]-amino}-butyric acid], the EC50 was 211 nM.

As to `CCC(CC)n1c(Cc2cccs2)nc2cc(C(=O)N[C@@H](CC(C)C)C(=O)Nc3cccc(N(C)C)c3)ccc21` [Example 316, 1-(1-Ethyl-propyl)-2-thiophen-2-ylmethyl-1H-benzoimidazole-5-carboxylic acid [(S)-1-(3-dimethylamino-phenylcarbamoyl)-3-methyl-butyl]-amide], the EC50 was found to be 22000 nM.

Consider `CCC(CC)n1c(Cc2cccs2)nc2cc(C(=O)NC(CCc3ccccc3)C(=O)O)ccc21` (stereo not drawn) [Example 28, 2-{[1-(1-Ethyl-propyl)-2-thiophen-2-ylmethyl-1H-benzoimidazole-5-carbonyl]-amino}-4-phenyl-butyric acid], for which the EC50 is 18500 nM.

As to `CCC(CC)n1c(Cc2cccs2)nc2cc(C(=O)N[C@@H](CC(C)C)C(=O)NC(C)CCN3CCOCC3)ccc21` (stereo partly drawn) [Example 306, 1-(1-Ethyl-propyl)-2-thiophen-2-ylmethyl-1H-benzoimidazole-5-carboxylic acid [(S)-3-methyl-1-(1-methyl-3-morpholin-4-yl-propylcarbamoyl)-butyl]-amide], the EC50 was determined as 1260 nM.

On to `CCC(CC)n1c(Cc2cccs2)nc2cc(C(=O)N[C@@H](CC(C)C)C(=O)NCCCSC)ccc21` [Example 248, 1-(1-Ethyl-propyl)-2-thiophen-2-ylmethyl-1H-benzoimidazole-5-carboxylic acid [(S)-3-methyl-1-(3-methylsulfanyl-propylcarbamoyl)-butyl]-amide], for which the EC50 stood at 1800 nM.

Take `CCC(C)n1c(Cc2cccs2)nc2cc(C(=O)N[C@@H](CC(C)C)C(=O)O)ccc21` (stereo partly drawn) [Example 147, (S)-2-[(1-sec-Butyl-2-thiophen-2-ylmethyl-1H-benzoimidazole-5-carbonyl)-amino]-4-methyl-pentanoic acid]: the EC50 was found to be 4550 nM.

`CCC(CC)n1c(Cn2cccn2)nc2cc(C(=O)N[C@H](CC(=O)O)CC(C)C)ccc21` [Example 49, (S)-3-{[1-(1-Ethyl-propyl)-2-pyrazol-1-ylmethyl-1H-benzoimidazole-5-carbonyl]-amino}-5-methyl-hexanoic acid]: the EC50 turned out to be 7070 nM.

Take `CCOC[C@H](CC(C)C)NC(=O)c1ccc2c(c1)nc(Cc1cccs1)n2C(CC)CC` [Example 208, 1-(1-Ethyl-propyl)-2-thiophen-2-ylmethyl-1H-benzoimidazole-5-carboxylic acid ((S)-1-ethoxymethyl-3-methyl-butyl)-amide]: the EC50 came out at 1160 nM.

As for `CCC(CC)n1c(Cc2cscn2)nc2cc(C(=O)N[C@H](CC(=O)O)CC(C)C)ccc21` [Example 98, (S)-3-{[1-(1-Ethyl-propyl)-2-thiazol-4-ylmethyl-1H-benzoimidazole-5-carbonyl]-amino}-5-methyl-hexanoic acid], the EC50 was 2190 nM.

As for `CC1CCCCC1n1c(Cc2cccs2)nc2cc(C(=O)N[C@@H](CC3CCCCC3)C(=O)O)ccc21` (single isomer, unassigned) [Example 427], the EC50 is 1320 nM.

As for `CCC(CC)n1c(Cc2cccs2)nc2cc(C(=O)N[C@@H](CC(C)C)C(=O)NCC3CCCN(C)C3)ccc21` (stereo partly drawn) [Example 297, 1-(1-Ethyl-propyl)-2-thiophen-2-ylmethyl-1H-benzoimidazole-5-carboxylic acid {(S)-3-methyl-1-[(1-methyl-piperidin-3-ylmethyl)-carbamoyl]-butyl}-amide], the EC50 worked out at 390 nM.

With `CCC(CC)n1c(Cc2cccs2)nc2cc(C(=O)N[C@@H](CC(C)C)C(=O)N(C)Cc3ccccc3OC)ccc21` [Example 256, 1-(1-Ethyl-propyl)-2-thiophen-2-ylmethyl-1H-benzoimidazole-5-carboxylic acid {(S)-1-[(2-methoxy-benzyl)-methyl-carbamoyl]-3-methyl-butyl}-amide], the EC50 is 5920 nM.

Turning to `CCC(CC)n1c(Cc2cccs2)nc2cc(C(=O)N[C@@H](CC(C)C)C(=O)N3CCN(c4cccc(C(F)(F)F)c4)CC3)ccc21` [Example 269, 1-(1-Ethyl-propyl)-2-thiophen-2-ylmethyl-1H-benzoimidazole-5-carboxylic acid {(S)-3-methyl-1-[4-(3-trifluoromethyl-phenyl)-piperazine-1-carbonyl]-butyl}-amide], the EC50 was 18500 nM.

For `CC(C)C[C@@H](CCC(=O)O)NC(=O)c1ccc2c(c1)nc(Cc1cccs1)n2C1CCCCC1C(F)(F)F` (stereo partly drawn) [Example 69, (R)-6-Methyl-4-{[2-thiophen-2-ylmethyl-1-(2-trifluoromethyl-cyclohexyl)-1H-benzoimidazole-5-carbonyl]-amino}-heptanoic acid], the EC50 was 339 nM.

Regarding `CCCC1CCN(CCCNC(=O)[C@H](CC(C)C)NC(=O)c2ccc3c(c2)nc(Cc2cccs2)n3C(CC)CC)CC1` [Example 354, 1-(1-Ethyl-propyl)-2-thiophen-2-ylmethyl-1H-benzoimidazole-5-carboxylic acid {(S)-3-methyl-1-[3-(4-propyl-piperidin-1-yl)-propylcarbamoyl]-butyl}-amide], the EC50 turned out to be 998 nM.

As for `CCC(CC)n1c(Cc2ccco2)nc2cc(C(=O)NC(C)(CC(C)C)C(=O)O)ccc21` (stereo not drawn) [Example 13, 2-{[1-(1-Ethyl-propyl)-2-furan-2-ylmethyl-1H-benzoimidazole-5-carbonyl]-amino}-2,4-dimethyl-pentanoic acid], the EC50 came out at 535 nM.

`CCC(CC)n1c(Cc2cccs2)nc2cc(C(=O)N[C@@H](CC(C)C)C(=O)NCCCN3CCOCC3)ccc21` [Example 234, 1-(1-Ethyl-propyl)-2-thiophen-2-ylmethyl-1H-benzoimidazole-5-carboxylic acid [(S)-3-methyl-1-(3-morpholin-4-yl-propylcarbamoyl)-butyl]-amide]: the EC50 was 344 nM.

As usually defined, the EC50 is the concentration at which the effect is half-maximal.
